Laboratory results reported in ChEMBL document CHEMBL1799997, “Discovery of omecamtiv mecarbil the first, selective, small molecule activator of cardiac Myosin” (ACS Med Chem Lett, 2010).
Values after ≈ are worked out from the molar mass of the structure shown. Active and inactive are the calls of the source. No cut-off for these calls is given here.

Assays:
[1] = Plasma protein binding in Sprague-Dawley rat; assay type: ADME, cell-free; conditions: read-out: PPB (converted)
[2] = Ratio of extraction in human Liver microsomes; assay type: ADME, Microsome; conditions: read-out: ERH
CYP1A2 = target: T1, CYP1A2 (Homo sapiens, UniProt P05177); test: Inhibition of CYP1A2 at 10 uM; assay type: ADME
T1 sequence (P05177 whole entry): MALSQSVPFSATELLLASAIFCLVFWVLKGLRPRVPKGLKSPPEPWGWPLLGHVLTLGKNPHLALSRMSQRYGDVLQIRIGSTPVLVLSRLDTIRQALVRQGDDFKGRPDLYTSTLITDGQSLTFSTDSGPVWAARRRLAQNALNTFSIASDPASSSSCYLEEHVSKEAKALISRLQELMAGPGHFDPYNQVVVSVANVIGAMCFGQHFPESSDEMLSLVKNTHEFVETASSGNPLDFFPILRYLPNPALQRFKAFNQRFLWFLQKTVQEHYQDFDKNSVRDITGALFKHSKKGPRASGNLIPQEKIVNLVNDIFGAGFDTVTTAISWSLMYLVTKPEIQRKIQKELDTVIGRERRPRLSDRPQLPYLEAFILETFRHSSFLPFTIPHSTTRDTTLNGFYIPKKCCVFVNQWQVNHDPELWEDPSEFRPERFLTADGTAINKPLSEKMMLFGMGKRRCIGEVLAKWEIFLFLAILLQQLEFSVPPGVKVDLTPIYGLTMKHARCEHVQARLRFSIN

Rattus norvegicus [3] = species on record: Rattus norvegicus; test: Activation of Sprague-Dawley rat myosin in cardiomyocytes assessed as compound concentration resulting in 40% increase in ATPase activity at calcium concentrations that produced 25-50% of maximum calcium dependent activation; assay type: cell-based
Aorta = test: Inhibition of vasodilation in Sprague-Dawley rat aortic ring; assay type: functional
[4] = Induction of contractility in Sprague-Dawley rat Cardiomyocytes assessed as change in fractional shortening at 2 uM; assay type: functional, Cardiac muscle cell
[5] = Solubility of the compound at pH 5 by shake flask method; assay type: physicochemical; conditions: buffer
[6] = Induction of contractility in Sprague-Dawley rat Cardiomyocytes assessed as change in fractional shortening at 0.8 uM; assay type: functional, Cardiac muscle cell
[7] = Kinetic solubility of the compound; assay type: physicochemical
Cytochrome P450 1A2 = target: T2, Cytochrome P450 1A2 (Homo sapiens, UniProt P05177); test: Inhibition of CYP1A2; assay type: ADME
T2 sequence (P05177 whole entry): T1 sequence (P05177 whole entry)

[8] = Induction of contractility in Sprague-Dawley rat Cardiomyocytes assessed as change in fractional shortening at 0.2 uM; assay type: functional, Cardiac muscle cell
[9] = Clearance in Sprague-Dawley rat; assay type: ADME, organism-based; conditions: in vivo
[10] = Clearance in Beagle dog heart failure model; assay type: ADME, organism-based, Canis lupus familiaris; conditions: in vivo
[11] = Volume of distribution in Sprague-Dawley rat; assay type: ADME, organism-based; conditions: in vivo
[12] = Volume of distribution in Beagle dog heart failure model; assay type: ADME, organism-based, Canis lupus familiaris; conditions: in vivo
[13] = Bioavailability in Beagle dog heart failure model; assay type: ADME, organism-based, Canis lupus familiaris; conditions: in vivo
[14] = Bioavailability in Sprague-Dawley rat; assay type: ADME, organism-based; conditions: in vivo
[15] = Induction of contractility in Sprague-Dawley rat Cardiomyocytes assessed as change in fractional shortening at 0.4 uM; assay type: functional, Cardiac muscle cell
[16] = Induction of contractility in Sprague-Dawley rat Cardiomyocytes assessed as change in fractional shortening at 10 uM; assay type: functional, Cardiac muscle cell
Oryctolagus cuniculus = species on record: Oryctolagus cuniculus; test: Activation of rabbit myosin in skeletal muscle assessed as compound concentration resulting in 40% increase in ATPase activity at calcium concentrations that produced 25-50% of maximum calcium dependent activation at 100 uM as single dose
Bos taurus [17] = species on record: Bos taurus; test: Activation of bovine myosin in cardiac sarcomere assessed as compound concentration resulting in 40% increase in ATPase activity at calcium concentrations that produced 25-50% of maximum calcium dependent activation at 100 uM as single dose
Bos taurus [18] = species on record: Bos taurus; test: Activation of bovine uterus myosin in smooth muscle assessed as compound concentration resulting in 40% increase in ATPase activity at calcium concentrations that produced 25-50% of maximum calcium dependent activation at 100 uM as single dose
Gallus gallus = species on record: Gallus gallus; test: Activation of chicken gizzard myosin in smooth muscle assessed as compound concentration resulting in 40% increase in ATPase activity at calcium concentrations that produced 25-50% of maximum calcium dependent activation at 100 uM as single dose
Rattus norvegicus [19] = species on record: Rattus norvegicus; test: Activation of myosin in Sprague-Dawley rat cardiomyocytes assessed as compound concentration resulting in 40% increase in ATPase activity at calcium concentrations that produced 25-50% of maximum calcium dependent activation; assay type: cell-based
[20] = Induction of contractility in Sprague-Dawley rat Cardiomyocytes assessed as change in increase in fractional shortening at 2 uM; assay type: functional, Cardiac muscle cell

fraction unbound [1] | hepatic extraction ratio [2] | Activity (Rattus norvegicus [3]) [µM] | solubility thermodynamic [5] [µg/mL] | solubility kinetic [7] [µg/mL] | IC50 (Cytochrome P450 1A2) [µM] | SMILES | R50 (Aorta) [µM] | Activity [4] [%] | other results
0.096 | 0.5 | 3.6 | 18 (≈ 46.3 µM) | – | – | COC(=O)N1CCC[C@@H](Oc2cc(F)cc(NC(=O)Nc3cccnc3)c2)C1 | 8 | 123 | inhibition at 10 µM (CYP1A2): 97%
0.079 | – | 0.6 | 40 (≈ 91.4 µM) | – | – | CN(C)S(=O)(=O)N1CCC[C@@H](Oc2cc(F)cc(NC(=O)Nc3cccnc3)c2)C1 | 6.6 | – | Activity [6]: 126%
0.175 | 0.5 | 2.5 | 390 (≈ 1050 µM) | – | 0.08 | CC(=O)N1CCC[C@@H](Oc2cc(F)cc(NC(=O)Nc3cccnc3)c2)C1 | 1.7 | 129 | –
0.065 | 0.3 | 0.8 | 17 (≈ 42.2 µM) | – | > 10 | COC(=O)N1CCC(Oc2cc(F)cc(NC(=O)Nc3ccc(C)nc3)c2)CC1 | 11 | 123 | –
0.112 | 0.9 | 0.7 | 13 (≈ 30.7 µM) | – | 0.06 | CN(C)S(=O)(=O)N1CC[C@@H](Oc2cc(F)cc(NC(=O)Nc3cccnc3)c2)C1 | >25 | – | Activity [15]: 137%
0.175 | – | 7.3 | 550 (≈ 1480 µM) | – | – | CC(=O)N1CCC[C@H](Oc2cc(F)cc(NC(=O)Nc3cccnc3)c2)C1 | >25 | – | inhibition at 10 µM (CYP1A2): 99%; Activity [16]: 122%
– | 0.6 | 2.5 | 130 (≈ 336 µM) | – | > 10 | CC(=O)N1CCC[C@@H](Oc2cc(F)cc(NC(=O)Nc3ccc(C)nc3)c2)C1 | 2.4 | 140 | –

Continued, compound first:

SMILES | fraction unbound [1] | hepatic extraction ratio [2] | Activity (Rattus norvegicus [3]) [µM] | solubility thermodynamic [5] [µg/mL] | solubility kinetic [7] [µg/mL] | IC50 (Cytochrome P450 1A2) [µM] | R50 (Aorta) [µM] | Activity [4] [%] | other results
O=C(Nc1cccc(Oc2cccnc2)c1)c1ccc(F)cc1 | – | – | 32 | – | 17 (≈ 55.1 µM) | – | – | – | –
O=C(Nc1ccc(F)cc1)Nc1cc(F)cc(Oc2cccnc2)c1 | – | – | 1.8 | – | 1.1 (≈ 3.22 µM) | – | – | 121 | –
COc1ccc(NC(=O)Nc2cc(F)cc(Oc3cccnc3)c2)cn1 | 0.075 | – | 1.4 | – | 28 (≈ 79 µM) | – | – | 134 | –
COC(=O)N1CCN(Cc2cc(F)cc(NC(=O)Nc3ccc(C)nc3)c2)CC1 | 0.103 | < 0.2 | 1.7 | 4600 (≈ 11500 µM) | – | > 10 | >25 | – | Activity [6]: 138%
COC(=O)N1CCN(Cc2cccc(NC(=O)Nc3ccc(C)nc3)c2F)CC1 [OMECAMTIV MECARBIL] | 0.204 | < 0.2 | 0.58 | 2200 (≈ 5480 µM) | – | > 10 | >25 | – | Activity [8]: 123%; clearance [9]: 22 mL/min/kg; clearance [10]: 7.2 mL/min/kg; Vd [11]: 3.5 L/kg; Vd [12]: 3.6 L/kg; bioavailability [13]: 80%; bioavailability [14]: 100%
O=C(Nc1cccnc1)Nc1cc(F)cc(Oc2cccnc2)c1 | 0.071 | – | 1.1 | 28 (≈ 86.3 µM) | 46 (≈ 142 µM) | – | – | 127 | –
COc1ccc(NC(=O)Nc2cc(F)cc(Oc3cccnc3)c2)cc1 | 0.049 | – | 0.7 | – | < 1 | – | – | 139 | –
COC(=O)N1CCN(Cc2cccc(NC(=O)Nc3ccc(C)nc3)c2)CC1 | 0.128 | < 0.2 | 4.5 | 4000 (≈ 10400 µM) | – | > 10 | 15 | – | Activity [6]: 126%
O=C(Nc1cc(Oc2cccnc2)cc([N+](=O)[O-])c1)c1ccc(F)cc1 | – | – | 1.4 | – | < 1 | – | – | – | Activity (Oryctolagus cuniculus): inactive; Activity (Bos taurus [17]): Active; Activity (Bos taurus [18]): inactive; Activity (Gallus gallus): inactive; Activity (Rattus norvegicus [19]): Active; Activity [20]: 135%
O=C(Nc1cc(F)cc(Oc2cccnc2)c1)c1ccc(F)cc1 | 0.079 | – | 2.5 | – | 5.3 (≈ 16.2 µM) | – | – | 104 | –
